In PubChem BioAssay (NCI):
Several values for one entry are separate records, joined by “and”; a condition that tells them apart may be missing. Identical values can stand only once.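 Protocol summary: plate cells (96-well), add compound at 5 concentrations, incubate 48 h, interpolate endpoints linearly. GI50: concentration for 50% inhibition of growth. The concentration for full growth arrest is given as TGI.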

Legend:
Assay in all cases: NCI tumour cell line growth inhibition, 48 h
HOP-18 NSCLC = system: HOP-18 NSCLC
M19-MEL melanoma = system: M19-MEL melanoma
DMS 114 small cell lung = system: DMS 114 small cell lung
DLD-1 colon = system: DLD-1 colon
LXFL 529 NSCLC = system: LXFL 529 NSCLC
DMS 273 small cell lung = system: DMS 273 small cell lung
XF 498 CNS = system: XF 498 CNS
SNB-78 CNS = system: SNB-78 CNS
RXF-631 renal = system: RXF-631 renal
P388 leukemia = system: P388 leukemia
SN12K1 renal = system: SN12K1 renal
P388/ADR leukemia = system: P388/ADR leukemia

SMILES	TGI (HOP-18 NSCLC)	TGI (M19-MEL melanoma)	TGI (DMS 114 small cell lung)	TGI (DLD-1 colon)	TGI (LXFL 529 NSCLC) [µM]	TGI (DMS 273 small cell lung)	TGI (XF 498 CNS)	TGI (SNB-78 CNS)	TGI (RXF-631 renal) [µM]	GI50 (HOP-18 NSCLC)	GI50 (DLD-1 colon) [µM]	GI50 (P388 leukemia) [µM]	TGI (P388 leukemia)	GI50 (DMS 273 small cell lung) [µM]	GI50 (XF 498 CNS) [µM]	GI50 (SN12K1 renal) [µM]	TGI (SN12K1 renal)	GI50 (P388/ADR leukemia) [µM]	TGI (P388/ADR leukemia)	GI50 (SNB-78 CNS) [µM]
CC12CC3C(CC1SCC(=O)O2)C3(C)C (stereo not given)	> 100 µM	> 100 µM	> 100 µM	> 100 µM	> 100	> 100 µM	> 100 µM	> 100 µM	–	–	–	–	–	–	–	–	–	–	–	–
S=c1sc2c(Cl)ncnc2n1-c1ccccc1	39.5 µM	13.1 µM	28.1 µM	24.2 µM	24.9	2.83 µM	28.7 µM	33.4 µM	–	–	–	–	–	–	–	–	–	–	–	–
C=C1C(=O)OC2/C=C(\C)C(OC(C)=O)C3OC3C(C)(O)CC(OC(=O)/C(C)=C/C)C12 (stereo not given)	23.5 µM	22.3 µM	20 µM	–	10.1	60 µM	18.2 µM	30.5 µM	–	–	–	–	–	–	–	–	–	–	–	–
COc1ccc(Cn2c(C)nc3c2C(=O)c2ccccc2C3=O)cc1	–	16.7 µM	–	> 75 µM	28.7	19.7 µM	27.1 µM	> 75 µM	–	–	–	–	–	–	–	–	–	–	–	–
O=C(O)CCCl	> 5000 µM	> 5000 µM	–	> 5000 µM	> 5000	> 5000 µM	–	> 5000 µM	–	–	–	–	–	–	–	–	–	–	–	–
COC(=O)C(=O)C(C(=O)Nc1cccc(C)c1C)C1Sc2ccccc2NC1=O (stereo not given)	> 25 µM	> 25 µM	19 µM	> 25 µM	> 25	> 25 µM	> 25 µM	> 25 µM	–	–	–	–	–	–	–	–	–	–	–	–
Cc1ccc(S(=O)(=O)N/N=C/c2oc(-c3cccc([N+](=O)[O-])c3)c(-c3cccc([N+](=O)[O-])c3)c2[N+](=O)[O-])cc1	> 100 µM	–	–	> 100 µM	> 100	–	> 100 µM	–	> 100	–	–	–	–	–	–	–	–	–	–	–
O=C(Nc1cccc2ccccc12)Oc1ccccc1C1CCCCC1	33.2 µM	43.4 µM	41.9 µM	44.8 µM	38.9	38.1 µM	–	57.9 µM	36.7	–	–	–	–	–	–	–	–	–	–	–
CCC1(O)CC(OC2CC(N(C)C)C(OC3CC4OC5CC(=O)C(C)OC5OC4C(C)O3)C(C)O2)c2c(cc3c(c2O)C(=O)c2c(O)ccc(O)c2C3=O)C1C(=O)OC (stereo not given)	0.0821 µM and 0.0764 µM	0.0705 µM and 0.0241 µM	0.0431 µM and 0.0473 µM	0.69 µM and 0.13 µM	1.18	0.0342 µM and 0.0217 µM	0.0199 µM and 0.0103 µM	0.854 µM and 0.536 µM	–	0.00875 µM and 0.0163 µM	0.00984	0.0075	0.00422 µM and 0.00817 µM	0.0075	0.00256	0.00862	0.0369 µM and 0.0325 µM	0.0075	0.008 µM and < 0.0451 µM	0.0126
